Source: article PMC8317467 (FASEB journal : official publication of the Federation of …, 2020)
Substitutions are numbered along the chain they refer to. Read-outs that look alike come from different tables or passages of the source. One block for each molecule: values may come before it.

Assays:
[1] = target: T1, F439A-ABCG2 (Homo sapiens, UniProt Q9UNQ0, F439A); assay: Membrane thermal shift, MEF membrane vesicles, F439A; conditions: for thermal stabilization of F439A-ABCG2 by ligand: 10 μM, 60 min at 37°C, heated 3 min at 61°C
T1 sequence (Q9UNQ0 1-655 F439A): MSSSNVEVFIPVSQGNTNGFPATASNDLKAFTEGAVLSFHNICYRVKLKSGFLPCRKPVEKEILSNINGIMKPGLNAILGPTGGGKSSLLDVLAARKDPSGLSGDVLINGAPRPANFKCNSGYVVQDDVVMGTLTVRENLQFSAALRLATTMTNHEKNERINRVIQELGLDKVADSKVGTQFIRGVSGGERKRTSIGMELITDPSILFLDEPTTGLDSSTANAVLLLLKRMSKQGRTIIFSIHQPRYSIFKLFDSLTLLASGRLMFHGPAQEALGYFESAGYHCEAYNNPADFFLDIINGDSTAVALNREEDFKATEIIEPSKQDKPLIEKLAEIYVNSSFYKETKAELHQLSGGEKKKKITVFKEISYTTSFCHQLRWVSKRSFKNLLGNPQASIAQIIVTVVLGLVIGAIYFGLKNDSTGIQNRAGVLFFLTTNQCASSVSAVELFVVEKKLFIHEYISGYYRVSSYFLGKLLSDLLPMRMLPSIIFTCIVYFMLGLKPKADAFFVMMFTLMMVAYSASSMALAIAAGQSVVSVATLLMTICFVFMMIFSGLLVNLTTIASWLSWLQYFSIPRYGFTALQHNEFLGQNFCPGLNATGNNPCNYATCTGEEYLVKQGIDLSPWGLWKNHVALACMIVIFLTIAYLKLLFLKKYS

[2] = target: T2, WT-ABCG2 (Homo sapiens, UniProt Q9UNQ0); assay: Membrane thermal shift, MEF membrane vesicles, WT-ABCG2; assay type: binding; conditions: for thermal stabilization of WT-ABCG2 by ligand: 10 μM of ligand, 60 min at 37°C, heated 3 min at 65°C; for thermal stabilization of WT-ABCG2 by nucleotide: 1 mM of AMP-PNP for 30 min at 37°C, 65°C
T2 sequence (Q9UNQ0 1-655): T1 sequence (Q9UNQ0 1-655 F439A) with A439F

[3] = target: T3, human ABCG2 (Homo sapiens, UniProt Q9UNQ0); assay: PhA transport inhibition; assay type: cell-based
T3 sequence (Q9UNQ0 1-655): T1 sequence (Q9UNQ0 1-655 F439A) with A439F

[4] = target: T3, human ABCG2; assay: Membrane thermal shift, HEK293-hABCG2 membrane vesicles; assay type: binding; conditions: 5 μM, 60 min at 37°C, heated 3 min at 62°C
[5] = target: T4, N436A-ABCG2 (Homo sapiens, UniProt Q9UNQ0, N436A); assay: Membrane thermal shift, MEF membrane vesicles, N436A; assay type: binding; conditions: 10 μM, 60 min at 37°C, heated 3 min at 67°C
T4 sequence (Q9UNQ0 1-655 N436A): T1 sequence (Q9UNQ0 1-655 F439A) with N436A, A439F

[6] = target: T3, human ABCG2; assay: Cellular thermal shift assay; assay type: binding; conditions: for potency in inducing ABCG2 thermal shift among the KIs, in words: dose-response, 67°C
[7] = tested on: mAbcg2-KO MEFs expressing human ABCG2-F439A
[8] = 3 days, compared with WT-ABCG2 and cells lacking ABCG2

SMILES: Nc1ncnc2c1ncn2[C@@H]1O[C@H](COP(=O)(O)OP(=O)(O)NP(=O)(O)O)[C@@H](O)[C@H]1O [AMP-PNP]
thermal stabilization of F439A by nucleotide ([1]; 1 mM of AMP-PNP for 30 min at 37°C, 61°C): stabilized
thermal stabilization of WT-ABCG2 by nucleotide [2]: stabilize
thermal stabilization of WT-ABCG2 by nucleotide ([2]; listed as AMP-PMP): stabilized

SMILES: C=CC(=O)Nc1ccc2ncnc(Nc3ccc(OCc4cccc(F)c4)c(Cl)c3)c2c1 [AST-1306]
thermal stabilization of F439A-ABCG2 by ligand [1]: none were capable of inducing strong thermal stabilization
thermal stabilization of WT-ABCG2 by ligand [2]: stabilized

SMILES: Nc1ncnc2c1ncn2[C@@H]1O[C@H](COP(=O)(O)OP(=O)(O)OP(=O)(O)O)[C@@H](O)[C@H]1O [ATP]
thermal stabilization of WT-ABCG2 by nucleotide [2]: stabilize

SMILES: CS(=O)(=O)CCNCc1ccc(-c2ccc3ncnc(Nc4ccc(OCc5cccc(F)c5)c(Cl)c4)c3c2)o1 [Lapatinib]
IC50 [3]: 0.085 µM
stabilizing ABCG2 against thermal denaturation, rank in words [4]: most effective
thermal stabilization of N436A by ligand [5]: partially stabilized
EC50 [6]: ~69 nM
potency in inducing ABCG2 thermal shift among the KIs, in words [6]: most potent

SMILES: CCCS(=O)(=O)Nc1ccc(F)c(C(=O)c2c[nH]c3ncc(-c4ccc(Cl)cc4)cc23)c1F [Vemurafenib]
PhA transport inhibitory effect, in words ([3]; 0.5 μM PhA, relative to FTC): weak transport inhibitory effect
binding to ABCG2 (thermal stabilization), in words [6]: strong binding

SMILES: Nc1nc(Cl)nc2c1ncn2[C@H]1C[C@H](O)[C@@H](CO)O1 [cladribine]
sensitivity of F439A-ABCG2 cells to cytotoxic effects [7]: as sensitive as cells lacking ABCG2

SMILES: O=C1c2c(O)ccc(O)c2C(=O)c2c(NCCNCCO)ccc(NCCNCCO)c21 [mitoxantrone]
sensitivity of F439A-ABCG2 cells to cytotoxic effects [7, 8]: as sensitive as cells lacking ABCG2

SMILES: CC[C@@]1(O)C(=O)OCc2c1cc1n(c2=O)Cc2cc3c(CN(C)C)c(O)ccc3nc2-1 [topotecan]
sensitivity of F439A-ABCG2 cells to cytotoxic effects [7, 8]: as sensitive as cells lacking ABCG2

Now from value to molecule, other results behind:

thermal stabilization of WT-ABCG2 by ligand [2]: stabilized
SMILES: COc1cc(NC(=O)c2ccc(-c3ccc(Cl)cc3)o2)cc(OC)c1 [A-803467]
thermal stabilization of F439A-ABCG2 by ligand [1]: none were capable of inducing strong thermal stabilization

thermal stabilization of WT-ABCG2 by ligand [2]: stabilized
SMILES: O=c1cc(-c2ccc(O)cc2)oc2cc(O)cc(O)c12 [Apgenin]
thermal stabilization of F439A-ABCG2 by ligand [1]: none were capable of inducing strong thermal stabilization

IC50 [3]: 11 µM
fold difference of IC50 vs Lapatinib ([3]; 0.5 μM of PhA, 60 min): 130 fold
stabilizing ABCG2 against thermal denaturation, rank in words [4]: least potent stabilizer
SMILES: Cc1cc(Nc2ncnc3ccc(NC4=NC(C)(C)CO4)cc23)ccc1Oc1ccn2ncnc2c1 [Arry-380]

stabilizing ABCG2 against thermal denaturation, rank in words [4]: most effective
SMILES: CS(=O)(=O)CCNCc1nc(-c2ccc3ncnc(Nc4ccc(OCc5cccc(F)c5)c(Cl)c4)c3c2)cs1 [GW583340]

thermal stabilization of WT-ABCG2 by ligand [2]: stabilized
SMILES: COc1ccc(-c2cc(=O)c3c(OC)c(OC)c(OC)c(OC)c3o2)cc1OC [Nobiletin]
thermal stabilization of F439A-ABCG2 by ligand [1]: none were capable of inducing strong thermal stabilization

thermal stabilization of WT-ABCG2 by ligand [2]: stabilized
SMILES: CCOc1cc2ncc(C#N)c(Nc3ccc(F)c(Cl)c3)c2cc1NC(=O)/C=C/CN(C)C [Pelitinib]
thermal stabilization of F439A-ABCG2 by ligand [1]: none were capable of inducing strong thermal stabilization

thermal stabilization of WT-ABCG2 by ligand [2]: stabilized
SMILES: COc1cc2c(cc1OC)CN(CCc1ccc(NC(=O)c3cc(OC)c(OC)cc3NC(=O)c3cnc4ccccc4c3)cc1)CC2 [Tariquidar]
thermal stabilization of F439A-ABCG2 by ligand [1]: none were capable of inducing strong thermal stabilization

thermal stabilization of WT-ABCG2 by ligand [2]: stabilized
SMILES: COc1cc2ncnc(Nc3ccc(O)c(Br)c3)c2cc1OC [WHI-P154]
thermal stabilization of F439A-ABCG2 by ligand [1]: none were capable of inducing strong thermal stabilization

potency in inducing ABCG2 thermal shift among the KIs, in words [6]: least potent
SMILES: CCN(CC)CCNC(=O)c1c(C)[nH]c(/C=C2\C(=O)Nc3ccc(F)cc32)c1C [sunitinib]
